Data taken from patent EP3959200B1, “NEW TRIAZOLE AND TRIAZOLOTHIADIAZINE DERIVATIVES EXERTING CYTOTOXIC AND APOPTOTIC EFFECTS ON A549 CELLS THROUGH AKT INHIBITION” (Anadolu Universitesi, priority 2020, dated 2022).
Values after ≈ are worked out from the molar mass of the structure shown.

Legend:
[1] = system: kidney cancer (OU-31) cell line; set-up: concentration or dose not given beside the values; settings: cited from earlier work
[2] = system: breast adenocarcinoma (MCF-7); settings: MCF-7, MTT; read-out: LC50 (the source's name); cited from earlier work
colon carcinoma (HCT116) = settings: HCT116, MTT; read-out: LC50 (the source's name); cited from earlier work
[3] = system: lung cancer (H-157) cell line; settings: cited from earlier work
[4] = system: kidney fibroblast (BHK-21) cells; settings: cited from earlier work
[5] = system: human epithelial cervical carcinoma (HeLa) cells; settings: MTT; cited from earlier work
K562 cell line = settings: cited from earlier work
[6] = system: human lung adenocarcinoma (A549); settings: cited from earlier work
[7] = system: ovarian carcinoma (SKOV3); settings: cited from earlier work
[8] = system: breast adenocarcinoma (MCF-7); settings: cited from earlier work
A549 cells = test: FITC Annexin V/PI apoptosis detection by flow cytometry; format: cell-based, human; settings: for Early apoptotic cells % / Late apoptotic cells % / Necrosis % / apoptotic activity / Viable cells%: at IC50 concentrations; for apoptotic activity: early plus late apoptotic cells; for apoptosis induction: flow cytometry, result in words
Experimental: The cells incubated with the compounds were centrifuged at 400 × g for 5 minutes in labeled tubes and washed twice with 1xPBS. Then, the cells were suspended in 1×Annexin-V binding solution at 1×10^6 cells/mL and 100 µL of this cell solution was taken and transferred to tubes. The cells were treated with 5 µL Annexin V FITC and 5 µL of propidium iodide (PI) dyes. Then, the cells were kept at room temperature in the dark for 15 minutes to allow the dye to bind. 400 µL of 1×Annexin-V binding cell solution was transferred to flow cytometry tubes and the amount of early and late apoptotic cells was determined relative to the positive control using the BD FACSAria flow cytometer FACSDiva version 6.1.1 software.

[9] = system: A549 human lung adenocarcinoma cells; test: MTT cytotoxicity assay; format: cell-based; settings: for IC50: Homo sapiens, A549, read-out: IC50 values A549 cell line; for SI values: SI= IC50 for NIH/3T3 cell line / IC50 for A549 cell line
Experimental: (§1) In order to be used from this stock, the concentrations ranging from 0.12 to 500 µg/mL (with the highest DMSO ratio of 0.1%) were prepared.
A549 human lung adenocarcinoma cells (ATCC® CCL-185™) were grown in RPMI 1640 medium supplemented with 10% fetal bovine serum, 1% penicillin/streptomycin, in an incubator with carbon dioxide, in a culture medium at 37°C at 95% relative humidity.
(§2) MTT protocol was applied to determine cell viability. […] At the end of the incubation period, 20 µL of MTT dye (5 mg/mL) was added into each well, and the cells were incubated for an additional 4 hours at 37°C. After this process, MTT dye was removed from the cells, 200 µL of DMSO was added to each well and left to incubate for 10 minutes. Color change was detected at 540 nm in the ELx808-IU Bio-Tek plate reader. Inhibition% values were determined for each concentration of compounds. Inhibitory concentration 50 (IC50) values of the compounds were calculated by drawing a dose-response curve with their concentrations against these values. All experiments were carried out in triplicate. The results were given as mean±standard deviation. Inhibition% = 100−[(ODtest compound−ODblank/ODsolvent control−ODblank)×100] [formula]
Selective index (SI) values were determined using the following formula. SI […] IC50 for NIH/3T3 cell line/IC50 for A549 cell line [formula]

Akt = Akt activity assay (Akt colorimetric in cell ELISA); format: cell-based, human; settings: for Inhibition % / IC50 value (Akt inhibitory effects): 24 hours; for Akt inhibitory effects: result in words
Experimental: Briefly, the media was removed from the wells and 100 µL of 4% formaldehyde was added. The plate was incubated for 15 minutes in a fume hood. Formaldehyde was removed and the plate was washed twice with 1X […] solution (TBS) to 100 µL/well. 1X TBS was removed and 100 µL of 1X permeabilization buffer was added to each well and left at room temperature for 15 minutes. After removing the 1X permeabilization buffer, the wells were washed once with 100 µL of 1X TBS. 1X TBS was removed and 100 µL of the quenching solution was added to the wells and left at room temperature for 20 minutes. Then, this solution was removed. The plate was washed once with 1X TBS, 100 µL of blocking buffer was added to the wells and left at room temperature for 30 minutes. At the end of this period, the blocking buffer was removed and 50 µL of primary antibody was added to the wells. The plate was closed with a sealer and incubated overnight at 4°C. The primary antibody was removed and plate wells were washed three times with 100 µL of wash buffer. After removing the wash buffer, 100 µL of diluted horseradish peroxidase (HRP) conjugate was added to the wells. It was incubated for 30 minutes at room temperature. After removing this conjugate, 100 µL of 3,3',5,5'-tetramethylbenzidine (TMB) stop solution was added and absorbance was measured at 450 nm for 30 minutes. The experiment was carried out in triplicate. The values of the blank wells were subtracted from the values of the untreated control and treated cells. The Akt activity% was determined as the relative absorbance of treated versus untreated control cells.

[10] = system: NIH/3T3 mouse embryonic fibroblast cells; test: MTT cytotoxicity assay; format: cell-based; settings: Mus musculus, NIH3T3, 24 hours, read-out: IC50 values NIH/3T3 cell line
Experimental: as §1
NIH/3T3 mouse embryonic fibroblast cells (ATCC® CRL-1658™) were grown in DMEM medium supplemented with 10% fetal bovine serum, 1% penicillin/streptomycin, in an incubator with carbon dioxide, in a culture medium at 37°C at 95% relative humidity.
as §2

## O=C(CSc1nnc2n1N=C(c1ccc(Br)cc1)CS2)c1ccc(Br)cc1 [1-(4-bromophenyl)-2-((6-(4-bromophenyl)-7H-[1,2,4]triazolo[3,4-b][1,3,4]thiadiazine-3-yl)thio)ethanone]
[1]
  growth: 46.76%
  inhibition: 53.24%

## O=C(CSc1nnc2n1N=C(c1ccc(F)cc1)CS2)c1ccc(F)cc1 [1-(4-fluorophenyl)-2-((6-(4-fluorophenyl)-7H-[1,2,4]triazolo[3,4-b][1,3,4]thiadiazine-3-yl)thio)ethanone]
[1]
  growth: 47.42%
  inhibition: 52.58%

## S=C(Nc1ccc(Oc2ccccc2)cc1)Nc1nc(-c2nnc(S)n2-c2ccc(Oc3ccccc3)cc2)cs1 [1-[4-(5-Mercapto-4-(4-phenoxyphenyl-4H-1,2,4-triazole-3-yl)thiazole-2-yl]-3-(4-phenoxyphenyl)thiourea]
[2]
  CC50: 17.4 µM
Colon carcinoma (HCT116)
  CC50: 23.5 µM

## O=c1oc2ccccc2cc1-c1nnc2n1N=C(c1ccc(-c3ccccc3)cc1)CS2 [3-(6-(Biphenyl-4-yl)-7H-[1,2,4]triazolo[3,4-b][1,3,4]-thiadiazine-3-yl)-2H-chromen-2-one]
[3]
  IC50: 1.01 ± 0.12 µM

## Cc1ccc(C2=Nn3c(nnc3-c3ccncc3)SC2)cc1 [3-(pyridine-4-yl)-6-(p-tolyl)-7H-[1,2,4]triazolo[3,4-b][1,3,4]thiadiazine]
[4]
  inhibition: 72.6%

## CS(=O)(=O)c1ccc(Cc2n[nH]c(=S)n2N=Cc2c(F)cccc2Cl)cc1 [4-{ [(2-chloro-6-fluorophenyl)methylene]amino}-5-[4-(methylsulfonyl)benzyl]-2,4-dihydro-3H-1,2,4-triazole-3-thione]
[5]
  EC50: 25 µM

## S=c1[nH]c(C23CC4CC(CC(C4)C2)C3)nn1CNc1ccccc1Cl [5-(adamantan-1-yl)-2-[((2-chlorophenyl)amino)methyl]-2,4-dihydro-3H-1,2,4-triazole-3-thione]
K562 cell line
  IC50: 27.1 ± 5.35 µM

## Fc1ccccc1NCn1nc(C23CC4CC(CC(C4)C2)C3)[nH]c1=S [5-(adamantan-1-yl)-2-[((2-fluorophenyl)amino)methyl]-2,4-dihydro-3H-1,2,4-triazole-3-thione]
K562 cell line
  IC50: 27.7 ± 2.46 µM

## Cc1ccccc1NCn1nc(C23CC4CC(CC(C4)C2)C3)[nH]c1=S [5-(adamantan-1-yl)-2-[(o-tolylamino)methyl]-2,4-dihydro-3H-1,2,4-triazole-3-thione]
K562 cell line
  IC50: 25.4 ± 0.89 µM

## COc1cccc(C2=Nn3c(nnc3-c3ccncc3)SC2)c1 [6-(3-methoxyphenyl)-3-(pyridine-4-yl)-7H-[1,2,4]triazolo[3,4-b][1,3,4]thiadiazine]
[4]
  inhibition: 73.3%

## COc1cc(-c2nnc3n2N=C(c2ccc(C)cc2)CS3)cc(OC)c1OC [6-(p-tolyl)-3-(3,4,5-trimethoxyphenyl)-7H-[1,2,4]triazolo[3,4-b][1,3,4]thiadiazine]
[6]
  IC50: 0.6 ± 0.02 µM
[7]
  IC50: 3.43 ± 0.33 µM
[8]
  IC50: 2.75 ± 0.05 µM

## N.N.[Cl][Pt][Cl] [Cisplatin, reference compound]
K562 cell line
  IC50: 5.45 ± 0.18 µM
A549 cells
  Early apoptotic cells %: 1.8%
  Late apoptotic cells %: 5.8%
  Necrosis %: 7.0%
  apoptotic activity: 7.6%
[9]; MTT, 24 hours
  IC50 values A549 cell line: 11.50 ± 0.71 µg/mL
Akt; 5.75 µg/mL
  Inhibition %: 40.70±1.62%
Akt; 11.50 µg/mL
  Inhibition %: 97.89±0.86%
Akt
  IC50 value (Akt inhibitory effects): 7.00 ± 0.50 µg/mL
[3]
  IC50: 1.31 ± 0.03 µM

## Nn1c(CCc2cccnc2)nnc1SCC(=O)Nc1nc2ccc(F)cc2s1 [Compound 3c, 2-((4-Amino-5-(2-(pyridine-3-yl)ethyl)-4H-1,2,4-triazole-3-yl)thio)-N-(6-fluorobenzothiazole-2-yl)acetamide]
A549 cells
  Early apoptotic cells %: 0.5%
  Late apoptotic cells %: 3.7%
  Necrosis %: 4.0%
  Viable cells%: 91.8%
[9]; MTT, 24 hours
  IC50: 0.27 ± 0.02 µg/mL (≈ 0.629 µM)
[9]
  SI values: 629.63
Akt; 0.07 µg/mL
  Inhibition %: 15.28±5.56%
Akt; 0.14 µg/mL
  Inhibition %: 36.64±13.39%
Akt; 0.27 µg/mL
  Inhibition %: 39.84±6.49%
Akt
  Akt inhibitory effects: did not show significant Akt inhibitory effects
[10]
  IC50: 170 ± 17.3 µg/mL (≈ 396 µM)

## Nn1c(CCc2cccnc2)nnc1SCC(=O)Nc1nc2ccc(Cl)cc2s1 [Compound 3d, 2-((4-Amino-5-(2-(pyridine-3-yl)ethyl)-4H-1,2,4-triazole-3-yl)thio)-N-(6-chlorobenzothiazole-2-yl)acetamide]
A549 cells
  Early apoptotic cells %: 1.8%
  Late apoptotic cells %: 6.3%
  Necrosis %: 4.8%
  Viable cells%: 87.2%
  apoptotic activity: 8.1%
  apoptosis induction: induce apoptosis
[9]; MTT, 24 hours
  IC50: 0.34 ± 0.02 µg/mL (≈ 0.762 µM)
[9]
  SI values: 14.41
Akt; 0.98 µg/mL
  Inhibition %: 80.23±7.70%
Akt; 1.95 µg/mL
  Inhibition %: 76.94±10.75%
Akt; 3.90 µg/mL
  Inhibition %: 100.00%
Akt
  IC50 value (Akt inhibitory effects): 0.19 ± 0.05 µg/mL (≈ 0.426 µM)
[10]
  IC50: 4.9 ± 0.36 µg/mL (≈ 11 µM)

## Cc1ccc2nc(NC(=O)CSc3nnc(CCc4cccnc4)n3N)sc2c1 [Compound 3f, 2-((4-Amino-5-(2-(pyridine-3-yl)ethyl)-4H-1,2,4-triazole-3-yl)thio)-N-(6-methylbenzothiazole-2-yl)acetamide]
A549 cells
  Early apoptotic cells %: 1.9%
  Late apoptotic cells %: 7.7%
  Necrosis %: 5.8%
  Viable cells%: 84.6%
  apoptotic activity: 9.6%
  apoptosis induction: induce apoptosis
[9]; MTT, 24 hours
  IC50: 6.5 ± 0.5 µg/mL (≈ 15.3 µM)
[9]
  SI values: >76.92
Akt; 3.25 µg/mL
  Inhibition %: 37.59±9.46%
Akt; 6.50 µg/mL
  Inhibition %: 40.29±11.27%
Akt
  Akt inhibitory effects: did not show significant Akt inhibitory effects
[10]
  IC50: > 500 µg/mL

## COc1ccc2nc(NC(=O)CSc3nnc(CCc4cccnc4)n3N)sc2c1 [Compound 3g, 2-((4-Amino-5-(2-(pyridine-3-yl)ethyl)-4H-1,2,4-triazole-3-yl)thio)-N-(6-methoxybenzothiazole-2-yl)acetamide]
A549 cells
  Early apoptotic cells %: 0.9%
  Late apoptotic cells %: 5.5%
  Necrosis %: 9.1%
  Viable cells%: 84.5%
  apoptosis induction: induce apoptosis
[9]; MTT, 24 hours
  IC50: 0.48 ± 0.03 µg/mL (≈ 1.09 µM)
Akt; 1.95 µg/mL
  Inhibition %: 26.42±4.59%
Akt; 3.90 µg/mL
  Inhibition %: 88.87±5.31%
Akt
  IC50 value (Akt inhibitory effects): 2.60 ± 0.10 µg/mL (≈ 5.89 µM)
[10]
  IC50: > 500 µg/mL

## COc1cc([C@@H]2c3cc4c(cc3[C@@H](O[C@@H]3O[C@@H]5CO[C@@H](C)O[C@H]5[C@H](O)[C@H]3O)[C@H]3COC(=O)[C@H]23)OCO4)cc(OC)c1O [etoposide]
[6]
  IC50: 2.99 ± 0.22 µM
[7]
  IC50: 2.3 ± 0.12 µM
[8]
  IC50: 1.89 ± 0.16 µM
